# From PMC10453993 (Emerging Microbes & Infections, 2023)
# Read-outs that look alike come from different tables or passages of the source.
# Tested on: SARS-CoV-2 VOCs
# Assay: microbe, parasite or virus in culture
# Format: cell-based
# [1] = Severe acute respiratory syndrome coronavirus 2, read-out: EC50, dsRNA staining
# [2] = Severe acute respiratory syndrome coronavirus 2, read-out: EC50, nucleocapsid staining
Compound,EC50 [1],EC50 [2],"EC50 (Severe acute respiratory syndrome coronavirus 2, Calu-3)"
"CN(C)c1ccc(N(Cc2cc(Cl)cs2)C(=O)Cc2cncc3cccc(O)c23)cc1 [C5a, N-((4-chlorothiophen-2-yl)methyl)-N-(4-(dimethylamino)phenyl)-2-(5-hydroxyisoquinolin-4-yl)acetamide]",28 to 95 nM,30 to 69 nM,–
"CC(C)(C)[C@H](NC(=O)C(F)(F)F)C(=O)N1C[C@H]2[C@@H]([C@H]1C(=O)N[C@H](C#N)C[C@@H]1CCNC1=O)C2(C)C [C7, Nirmatrelvir, reference compound]",400 to 700 nM,300 to 400 nM,1300 nM
"CN(C)c1ccc(N(Cc2cc(Cl)cs2)C(=O)Cc2cncc3ccccc23)cc1 [C5, N-((4-chlorothiophen-2-yl)methyl)-N-(4-(dimethylamino)phenyl)-2-(isoquinolin-4-yl)acetamide]",200 to 700 nM,100 to 300 nM,–
